Data taken from ChEMBL document CHEMBL4007498, “Design and synthesis of hybrids of diarylpyrimidines and diketo acids as HIV-1 inhibitors” (Bioorg Med Chem Lett, 2017).

Legend:
[1] = system: Human immunodeficiency virus 1; assay: Antiviral activity against HIV1 harboring reverse transcriptase Y181C mutant infected in human MT4 cells assessed as inhibition of viral replication after 5 days by MTT assay; type: functional, cell-based; details: Human immunodeficiency virus 1, MT4, 120 h
[2] = Selectivity index, ratio of CC50 for human MT4 cells to EC50 for wild type HIV1 3B; type: toxicity; details: read-out: Ratio CC50/EC50
[3] = biological target: Human immunodeficiency virus type 1 reverse transcriptase (Human immunodeficiency virus 1, UniProt Q72547); assay: Inhibition of recombinant wild type HIV-1 reverse transcriptase p66/p51 using poly(rA)/oligo(dT)16 as template/primer after 40 mins by ELISA
[4] = Cytotoxicity against human MT4 cells assessed as decrease in cell viability after 5 days by MTT assay; type: cell-based
[5] = system: Human immunodeficiency virus 1; assay: Antiviral activity against HIV1 harboring reverse transcriptase F227L/V106A double mutant infected in human MT4 cells assessed as inhibition of viral replication after 5 days by MTT assay; type: functional, cell-based; details: Human immunodeficiency virus 1, MT4, 120 h
[6] = system: Human immunodeficiency virus 2; assay: Antiviral activity against HIV2 ROD infected in human MT4 cells assessed as inhibition of viral replication after 5 days by MTT assay; type: functional, cell-based; details: Human immunodeficiency virus 2, ISOLATE ROD, MT4, 120 h
[7] = system: Human immunodeficiency virus 1; assay: Antiviral activity against HIV1 harboring reverse transcriptase K103N mutant infected in human MT4 cells assessed as inhibition of viral replication after 5 days by MTT assay; type: functional, cell-based; details: Human immunodeficiency virus 1, MT4, 120 h
[8] = system: Human immunodeficiency virus 1; assay: Antiviral activity against HIV1 harboring reverse transcriptase L100I mutant infected in human MT4 cells assessed as inhibition of viral replication after 5 days by MTT assay; type: functional, cell-based; details: Human immunodeficiency virus 1, MT4, 120 h
[9] = system: Human immunodeficiency virus 1; assay: Antiviral activity against HIV1 harboring reverse transcriptase Y188L mutant infected in human MT4 cells assessed as inhibition of viral replication after 5 days by MTT assay; type: functional, cell-based; details: Human immunodeficiency virus 1, MT4, 120 h
[10] = system: Human immunodeficiency virus 1; assay: Antiviral activity against HIV1 RES056 harboring reverse transcriptase K103N/Y181C double mutant infected in human MT4 cells assessed as inhibition of viral replication after 5 days by MTT assay; type: functional, cell-based; details: Human immunodeficiency virus 1, RES056, MT4, 120 h
[11] = system: Human immunodeficiency virus 1; assay: Antiviral activity against HIV1 harboring reverse transcriptase E138K mutant infected in human MT4 cells assessed as inhibition of viral replication after 5 days by MTT assay; type: functional, cell-based; details: Human immunodeficiency virus 1, MT4, 120 h
[12] = system: Human immunodeficiency virus 1; assay: Antiviral activity against wild type HIV1 3B infected in human MT4 cells assessed as inhibition of viral replication after 5 days by MTT assay; type: functional, cell-based; details: Human immunodeficiency virus 1, 3B, MT4, 120 h

For `N#Cc1ccc(Nc2nccc(Oc3cccc(C(=O)CC(=O)C(=O)O)c3)n2)cc1`, the EC50 [1] was 50 µM, the selectivity ratio [2] was 71 to 442 and the IC50 [3] was 5.93 µM. For the same compound, the CC50 at 120 h [4] was 10 to 62 µM, the EC50 [5] was 59 µM and the EC50 [6] was greater than 8 µM. It also gave an EC50 [7] of 38 µM, an EC50 [8] greater than 10 µM and an EC50 [9] greater than 10 µM. It also gave an EC50 [10] of 9 to 10 µM, an EC50 [11] of 43 µM and an EC50 [12] of 0.14 µM.
`O=C(O)C(=O)CC(=O)c1ccc(O)cc1` gave a selectivity ratio [2] of 1, a CC50 at 120 h [4] greater than 600 µM and an EC50 [6] greater than 600 µM. The EC50 [12] was greater than 600 µM.
For `Cc1cn([C@H]2C[C@H](N=[N+]=[N-])[C@@H](CO)O2)c(=O)[nH]c1=O` [ZIDOVUDINE], the EC50 [1] was 0.0057 µM, the selectivity ratio [2] was 971 to 974 and the CC50 at 120 h [4] was 7 to 7.5 µM. It also gave an EC50 [5] of 0.0035 µM, an EC50 [7] of 0.016 µM and an EC50 [8] of 0.0052 µM. It also gave an EC50 [9] of 0.007 µM, an EC50 [10] of 0.008 to 0.01 µM and an EC50 [11] of 0.009 µM. It also gave an EC50 [12] of 0.0077 µM.
Compound `CCOC(=O)C(=O)CC(=O)c1cccc(Oc2ccnc(Nc3ccc(C#N)cc3)n2)c1` has an EC50 [1] greater than 13 µM, a selectivity ratio [2] of 78 and an IC50 [3] of 6.06 µM. The CC50 at 120 h [4] was 14 µM, the EC50 [5] was greater than 13 µM and the EC50 [6] was greater than 10 µM. For the same compound, the EC50 [7] was 13 to 14 µM, the EC50 [8] was greater than 13 µM and the EC50 [9] was greater than 13 µM. For the same compound, the EC50 [10] was 13 to 14 µM, the EC50 [11] was 10 µM and the EC50 [12] was 0.18 µM.
With `Cc1cc(C#N)cc(C)c1Oc1nc(Nc2ccc(C#N)cc2)nc(N)c1Br` [ETRAVIRINE] the CC50 at 120 h [4] was 4.6 to 5 µM, the EC50 [5] was 0.022 µM and the EC50 [7] was 0.0036 to 0.004 µM. The EC50 [9] was 0.022 µM, the EC50 [10] was 0.03 µM and the EC50 [11] was 0.015 µM. The EC50 [12] was 0.0033 µM.
In the case of `O=C1Nc2ccc(Cl)cc2[C@@](C#CC2CC2)(C(F)(F)F)O1` [EFAVIRENZ], the EC50 [1] is reported as 0.0054 µM, the selectivity ratio [2] is reported as 1720 to 2510 and the CC50 at 120 h [4] is reported as 9 to 9.3 µM. The EC50 [5] was 0.13 µM, the EC50 [7] was 0.12 to 0.17 µM and the EC50 [8] was 0.038 µM. For the same compound, the EC50 [9] was 0.17 µM, the EC50 [10] was 0.12 to 0.17 µM and the EC50 [11] was 0.0047 µM. For the same compound, the EC50 [12] was 0.0037 to 0.0054 µM.
With `CCOC(=O)C(=O)CC(=O)c1cccc(O)c1` the selectivity ratio [2] was less than 1, the CC50 at 120 h [4] was 356 to 364 µM and the EC50 [6] was greater than 357 µM. The EC50 [12] was 356 to 357 µM.
`O=C(O)C(=O)CC(=O)c1cccc(O)c1` showed a selectivity ratio [2] of less than 1, a CC50 at 120 h [4] of 528 µM and an EC50 [6] greater than 528 µM. The EC50 [12] was greater than 528 µM.
Work on `CCOC(=O)C(=O)CC(=O)c1ccc(O)cc1` yielded a selectivity ratio [2] of less than 1, a CC50 at 120 h [4] of 466 µM and an EC50 [6] greater than 312 µM. The EC50 [12] was greater than 466 µM.
`CCOC(=O)C(=O)CC(=O)c1ccc(Oc2ccnc(Nc3ccc(C#N)cc3)n2)cc1` showed an EC50 [1] greater than 22 µM, a selectivity ratio [2] of 95 and an IC50 [3] of 5.86 µM. For the same compound, the CC50 at 120 h [4] was 18 µM, the EC50 [5] was greater than 22 µM and the EC50 [6] was greater than 16 µM. For the same compound, the EC50 [7] was 10 µM, the EC50 [8] was greater than 22 µM and the EC50 [9] was greater than 22 µM. It also gave an EC50 [10] of 18 to 22 µM, an EC50 [11] of 7 µM and an EC50 [12] of 0.19 µM.
`O=C(O)/C(O)=C/C(=O)c1cccc(Cc2ccccc2)c1` gave a selectivity ratio [2] greater than 61, an IC50 [3] greater than 100 µM and a CC50 at 120 h [4] greater than 10 µM.
Work on `Cc1ccnc2c1NC(=O)c1cccnc1N2C1CC1` [NEVIRAPINE] yielded an EC50 [1] greater than 15 µM, a selectivity ratio [2] greater than 179 and a CC50 at 120 h [4] greater than 15 µM. The EC50 [5] was greater than 15 µM, the EC50 [7] was greater than 15 µM and the EC50 [8] was 1.8 µM. For the same compound, the EC50 [9] was greater than 15 µM, the EC50 [10] was greater than 15 µM and the EC50 [11] was 0.21 µM. The EC50 [12] was 0.084 µM.
With `N#Cc1ccc(Nc2nccc(Oc3ccc(C(=O)CC(=O)C(=O)O)cc3)n2)cc1` the EC50 [1] was greater than 48 µM, the selectivity ratio [2] was 182 to 183 and the IC50 [3] was 25.2 µM. The CC50 at 120 h [4] was 42 µM, the EC50 [5] was greater than 48 µM and the EC50 [6] was greater than 28 µM. It also gave an EC50 [7] of 42 to 48 µM, an EC50 [8] greater than 48 µM and an EC50 [9] greater than 48 µM. It also gave an EC50 [10] of 42 to 48 µM, an EC50 [11] of 10 µM and an EC50 [12] of 0.23 µM.
